# Test results: patent US11617740B2, “Chemical inhibitors of Mycobacterium tuberculosis DosRST signaling and persistence” (priority 2017, dated 2023)
# Several values for one entry are separate records, joined by “and”; a condition that tells them apart may be missing. Equal entries are not always repeated. Entries after “also recorded” stand apart in the source; their conditions may differ.
# Assays:
# WT DosS heme [1] = target: T1, WT DosS heme (Mycobacterium tuberculosis, UniProt P9WGK3); experiment: UV-visible spectroscopy of DosS heme; type: biochemical; details: for position of DosS Soret peak after treatment: DTN-reduced DosS (430 nm), 100 μM
# DosR regulon = type: cell-based; details: ΔdosR mutant, 40 μM, >2-fold; q<0.05
# DosS(G117L) = DosS(G117L) (Mycobacterium tuberculosis, UniProt P9WGK3, G117L); type: biochemical
# DosS(E87L) = DosS(E87L) (Mycobacterium tuberculosis, UniProt P9WGK3, E87L); type: biochemical
# WT DosS heme [2] = target: T1, WT DosS heme; details: identical conditions, gradual shift to oxidized state; cited from earlier work
Compound,position of DosS Soret peak after treatment (WT DosS heme [1]),genes downregulated in CDC1551(ΔdosR) background (DosR regulon),further results
"[C-]#[O+] [CO, carbon monoxide, reference compound]",422 nm,,
"[C-]#[O+].[C-]#[O+].[C-]#[O+].[C-]#[O+].[C-]#[O+].[C-]#[O+].[Cl][Ru][Cl].[Cl][Ru][Cl] [CORM-2, tricarbonylchlororuthenium(II) dimer, reference compound]",422 nm,,
CN(C)CCCN1C(=O)c2cccc3c(Br)ccc(c23)C1=O [HC104A],,171 genes,"effect on DosS UV-visible spectrum / heme redox (WT DosS heme [1]; DTN-reduced DosS, 400 μM HC104A): no change; also recorded: inhibitory activity was not observed; also recorded: no impact on the position of the Soret peak"
O=C(Nc1ccno1)Nc1ccc(Cl)cc1Cl [HC106A],422 nm and ~420 nm,51 genes,change of DosS(G117L) UV-visible spectrum (DosS(G117L)): no change to the overall spectrum; also recorded: did not change; also recorded: promoted HC106A resistance; change of DosS E87L UV-visible spectrum (DosS(E87L)): no change on overall spectrum; position of DosS(E87L) Soret peak after treatment (DosS(E87L)): 422 nm
"C[C@@H]1CC[C@H]2[C@@H](C)C(=O)O[C@@H]3O[C@@]4(C)CC[C@@H]1[C@]32OO4 [artemisinin, reference compound]",,,position of DosS Soret peak after treatment (earlier work) (WT DosS heme [2]): 403 nm
